The test system of this assay is MV-4-11 cells. The assay is described as follows: Gene expression microarray analysis (Affymetrix PrimeView) and GSEA. Type of assay: cell-based, human. Further details: RFU PODN (11730768_x_at) / Fold change /veh PODN (11730768_x_at) / RFU LINC00158 (11744669_a_at) / Fold change /veh LINC00158 (11744669_a_at) / RFU DUSP10 (11751237_a_at) / Fold change /veh DUSP10 (11751237_a_at) / RFU ID3 (11757404_x_at) / Fold change /veh ID3 (11757404_x_at) / RFU PLEKHG5 (11737974_s_at) / Fold change /veh PLEKHG5 (11737974_s_at) / RFU LRRC4B (11730491_at) / Fold change /veh LRRC4B (11730491_at) / RFU GIMAP4 (11747438_a_at) / Fold change /veh GIMAP4 (11747438_a_at) / RFU KRT8 (11758183_x_at) / Fold change /veh KRT8 (11758183_x_at) / RFU CNN1 (11734310_a_at) / Fold change /veh CNN1 (11734310_a_at) / RFU VPS37D (11726825_at) / Fold change /veh VPS37D (11726825_at) / RFU C10orf10 (11716522_x_at) / Fold change /veh C10orf10 (11716522_x_at) / RFU KIR2DL2 /// KIR2DL4 /// KIR2DL5A /// KIR2DL5B /// KIR2DS1 /// KIR2DS2 /// KIR2DS3 /// KIR2DS4 /// KIR3DL3 /// KIR3DL3 /// KIR3DS1 (11738374_at) / Fold change /veh KIR2DL2 /// KIR2DL4 /// KIR2DL5A /// KIR2DL5B /// KIR2DS1 /// KIR2DS2 /// KIR2DS3 /// KIR2DS4 /// KIR3DL3 /// KIR3DL3 /// KIR3DS1 (11738374_at) / RFU C1QL1 (11718748_at) / Fold change /veh C1QL1 (11718748_at) / RFU TMPRSS4 (11747572_a_at) / Fold change /veh TMPRSS4 (11747572_a_at) / RFU HAMP (11756126_x_at) / Fold change /veh HAMP (11756126_x_at) / RFU RNFT2 (11725882_a_at) / Fold change /veh RNFT2 (11725882_a_at) / RFU NR4A2 (11747474_a_at) / Fold change /veh NR4A2 (11747474_a_at) / RFU ABCC12 (11746883_a_at) / Fold change /veh ABCC12 (11746883_a_at) / RFU TMEM136 (11760407_x_at) / Fold change /veh TMEM136 (11760407_x_at) / RFU CLDN22 /// WWC2 (11732394_at) / Fold change /veh CLDN22 /// WWC2 (11732394_at) / RFU HLA-DPB1 (11760878_x_at) / Fold change /veh HLA-DPB1 (11760878_x_at) / RFU SPINT1 (11716480_a_at) / Fold change /veh SPINT1 (11716480_a_at) / RFU GAP43 (11754022_s_at) / Fold change /veh GAP43 (11754022_s_at) / RFU A4GNT (11735810_at) / Fold change /veh A4GNT (11735810_at) / RFU PRB3 (11715151_x_at) / Fold change /veh PRB3 (11715151_x_at) / RFU TUBB4B (11761932_at) / Fold change /veh TUBB4B (11761932_at) / RFU CAPN14 (11732068_a_at) / Fold change /veh CAPN14 (11732068_a_at) / RFU TMCC2 (11721928_a_at) / Fold change /veh TMCC2 (11721928_a_at) / RFU IRGQ (11745062_a_at) / Fold change /veh IRGQ (11745062_a_at) / RFU FAM174B (11720279_a_at) / Fold change /veh FAM174B (11720279_a_at) / RFU TMPRSS4 (11748680_a_at) / Fold change /veh TMPRSS4 (11748680_a_at) / RFU FAM212B (11763350_a_at) / Fold change /veh FAM212B (11763350_a_at) / RFU PLEKHG5 (11743358_a_at) / Fold change /veh PLEKHG5 (11743358_a_at) / RFU ZSCAN30 (11745921_a_at) / Fold change /veh ZSCAN30 (11745921_a_at) / RFU CMKLR1 (11741424_a_at) / Fold change /veh CMKLR1 (11741424_a_at) / RFU LOC101060620 /// MAPK8IP1 (11723275_at) / Fold change /veh LOC101060620 /// MAPK8IP1 (11723275_at) / RFU SPTSSB (11747773_x_at) / Fold change /veh SPTSSB (11747773_x_at) / RFU PRSS12 (11739890_at) / Fold change /veh PRSS12 (11739890_at) / RFU BIN1 (11741810_x_at) / Fold change /veh BIN1 (11741810_x_at) / RFU WNT11 (11732464_a_at) / Fold change /veh WNT11 (11732464_a_at) / RFU C10orf10 (11716521_a_at) / Fold change /veh C10orf10 (11716521_a_at) / RFU C5orf56 (11738089_at) / Fold change /veh C5orf56 (11738089_at) / RFU CYB561 (11721691_x_at) / Fold change /veh CYB561 (11721691_x_at) / RFU ANKRD19P (11752326_a_at) / Fold change /veh ANKRD19P (11752326_a_at) / RFU OR2T12 /// OR2T33 /// OR2T8 (11738714_s_at) / Fold change /veh OR2T12 /// OR2T33 /// OR2T8 (11738714_s_at) / RFU VCAN (11748164_a_at) / Fold change /veh VCAN (11748164_a_at) / RFU JSRP1 (11732532_at) / Fold change /veh JSRP1 (11732532_at) / RFU KRTAP10-11 (11738290_x_at) / Fold change /veh KRTAP10-11 (11738290_x_at) / RFU MYO3A (11730013_a_at) / Fold change /veh MYO3A (11730013_a_at) / RFU EBF3 (11725865_a_at) / Fold change /veh EBF3 (11725865_a_at) / RFU CAMK2N1 (11719241_x_at) / Fold change /veh CAMK2N1 (11719241_x_at) / RFU C5orf56 (11738088_a_at) / Fold change /veh C5orf56 (11738088_a_at) / RFU OLFML3 (11715873_a_at) / Fold change /veh OLFML3 (11715873_a_at) / RFU LOC100653217 /// NTM (11731650_a_at) / Fold change /veh LOC100653217 /// NTM (11731650_a_at) / RFU MAPK11 (11762145_a_at) / Fold change /veh MAPK11 (11762145_a_at) / RFU FIZ1 (11724087_x_at) / Fold change /veh FIZ1 (11724087_x_at) / RFU OASL (11726364_x_at) / Fold change /veh OASL (11726364_x_at) / RFU SOX15 (11748057_x_at) / Fold change /veh SOX15 (11748057_x_at) / RFU CD79A (11719716_a_at) / Fold change /veh CD79A (11719716_a_at) / RFU HIST1H1D (11736915_at) / Fold change /veh HIST1H1D (11736915_at) / RFU CASKIN2 (11723855_a_at) / Fold change /veh CASKIN2 (11723855_a_at) / RFU LOC730098 (11760151_x_at) / Fold change /veh LOC730098 (11760151_x_at) / RFU OR4N2 (11742367_at) / Fold change /veh OR4N2 (11742367_at) / RFU PRRT2 (11749266_a_at) / Fold change /veh PRRT2 (11749266_a_at) / RFU SNX32 (11753110_a_at) / Fold change /veh SNX32 (11753110_a_at) / RFU CDHR5 (11726645_a_at) / Fold change /veh CDHR5 (11726645_a_at) / RFU RCAN1 (11760418_a_at) / Fold change /veh RCAN1 (11760418_a_at) / RFU FAM167A (11723789_a_at) / Fold change /veh FAM167A (11723789_a_at) / RFU FAM26E (11764081_at) / Fold change /veh FAM26E (11764081_at) / RFU ISYNA1 (11749810_s_at) / Fold change /veh ISYNA1 (11749810_s_at) / RFU ACY1 (11761880_at) / Fold change /veh ACY1 (11761880_at) / RFU 11764098_at / Fold change /veh 11764098_at / RFU SAMD14 (11745864_x_at) / Fold change /veh SAMD14 (11745864_x_at) / RFU NPB (11741838_a_at) / Fold change /veh NPB (11741838_a_at) / RFU TMPRSS6 (11731388_a_at) / Fold change /veh TMPRSS6 (11731388_a_at) / RFU KRTAP10-2 (11738614_at) / Fold change /veh KRTAP10-2 (11738614_at) / RFU ARHGAP8 /// PRR5-ARHGAP8 (11727945_x_at) / Fold change /veh ARHGAP8 /// PRR5-ARHGAP8 (11727945_x_at) / RFU KRTAP5-7 /// NADSYN1 (11734609_at) / Fold change /veh KRTAP5-7 /// NADSYN1 (11734609_at) / RFU RASL12 (11751679_a_at) / Fold change /veh RASL12 (11751679_a_at) / RFU CDKN2B (11736163_a_at) / Fold change /veh CDKN2B (11736163_a_at) / RFU PRF1 (11729649_at) / Fold change /veh PRF1 (11729649_at) / RFU, ZNF638 /// ZNF638-IT1 / Fold change vs veh, ZNF638 /// ZNF638-IT1 / RFU, PANK3 / Fold change vs veh, PANK3 / RFU, SH3YL1 / Fold change vs veh, SH3YL1 / RFU, ZEB2 / Fold change vs veh, ZEB2 / RFU, NRIP1 / Fold change vs veh, NRIP1 / RFU, PTTG1IP / Fold change vs veh, PTTG1IP / RFU, CAPN2 / Fold change vs veh, CAPN2 / RFU, MED14 / Fold change vs veh, MED14 / RFU, SNORA58 / Fold change vs veh, SNORA58 / RFU, C1orf63 / Fold change vs veh, C1orf63 / RFU, LRRFIP1 / Fold change vs veh, LRRFIP1 / RFU, NDUFAF7 / Fold change vs veh, NDUFAF7 / RFU, SLC12A2 / Fold change vs veh, SLC12A2 / RFU, IBTK / Fold change vs veh, IBTK / RFU, ESF1 / Fold change vs veh, ESF1 / Fold change vs veh, TMEM50B / RFU, TAOK1 / Fold change vs veh, TAOK1 / RFU, ACBD3 / Fold change vs veh, ACBD3 / RFU, TMA16 / Fold change vs veh, TMA16 / RFU, RWDD3 / Fold change vs veh, RWDD3 / RFU, BCAT1 / Fold change vs veh, BCAT1 / RFU, EDEM3 / Fold change vs veh, EDEM3 / RFU, TMEM33 / Fold change vs veh, TMEM33 / RFU, WDR75 / Fold change vs veh, WDR75 / RFU, AHCTF1 / Fold change vs veh, AHCTF1 / RFU, TFRC / Fold change vs veh, TFRC / RFU, ZDHHC17 / Fold change vs veh, ZDHHC17 / RFU, NOM1 / Fold change vs veh, NOM1 / RFU, ARL8B / Fold change vs veh, ARL8B / RFU, ZBTB11 / Fold change vs veh, ZBTB11 / RFU, TAMM41 / Fold change vs veh, TAMM41 / RFU, KIAA1704 /// LOC100996395 / Fold change vs veh, KIAA1704 /// LOC100996395 / RFU, ING1 / Fold change vs veh, ING1 / RFU, TRMT61B / Fold change vs veh, TRMT61B / RFU, FUBP3 / Fold change vs veh, FUBP3 / RFU, TP53 / Fold change vs veh, TP53 / RFU, TNKS2 / Fold change vs veh, TNKS2 / RFU, ZFP14 / Fold change vs veh, ZFP14 / RFU, ACTR2 / Fold change vs veh, ACTR2 / RFU, PPP3R1 / Fold change vs veh, PPP3R1 / RFU, PIK3R1 / Fold change vs veh, PIK3R1 / RFU, HNRNPA1 / Fold change vs veh, HNRNPA1 / RFU, RNF170 / Fold change vs veh, RNF170 / RFU, ZNF28 / Fold change vs veh, ZNF28 / RFU, RNGTT / Fold change vs veh, RNGTT / RFU, OGT / Fold change vs veh, OGT / RFU, BRD1 / Fold change vs veh, BRD1 / RFU, MARS / Fold change vs veh, MARS / RFU, ZNF655 / Fold change vs veh, ZNF655 / RFU, FAHD1 / Fold change vs veh, FAHD1 / RFU, BDP1 / Fold change vs veh, BDP1 / RFU, LRRCC1 / Fold change vs veh, LRRCC1 / RFU, ARID1A / Fold change vs veh, ARID1A / RFU, ZNF146 / Fold change vs veh, ZNF146 / RFU, ZNF330 / Fold change vs veh, ZNF330 / RFU, GPN3 / Fold change vs veh, GPN3 / RFU, C9orf123 / Fold change vs veh, C9orf123 / RFU, N4BP2L2 / Fold change vs veh, N4BP2L2 / RFU, ARFIP1 / Fold change vs veh, ARFIP1 / RFU, FAM179B / Fold change vs veh, FAM179B / RFU, BCL10 / Fold change vs veh, BCL10 / RFU, UHRF1BP1L / Fold change vs veh, UHRF1BP1L / RFU, BET1 / Fold change vs veh, BET1 / RFU, CNOT2 / Fold change vs veh, CNOT2 / RFU, ZNF268 / Fold change vs veh, ZNF268 / Fold change vs veh, ZNF507 / RFU, DGCR2 / Fold change vs veh, DGCR2 / RFU, WDSUB1 / Fold change vs veh, WDSUB1 / Fold change vs veh, HSP90B1 /// MIR3652 / RFU, ADSS / Fold change vs veh, ADSS / RFU, GK / Fold change vs veh, GK / RFU, ZNF148 / Fold change vs veh, ZNF148 / RFU, TAF9 / Fold change vs veh, TAF9 / RFU, SLC1A5 / Fold change vs veh, SLC1A5 / RFU, SLMO2 / Fold change vs veh, SLMO2 / RFU, ABCC4 / Fold change vs veh, ABCC4 / RFU, LOC101060439 /// RAP1B / Fold change vs veh, LOC101060439 /// RAP1B / RFU, RFX7 / Fold change vs veh, RFX7 / RFU, GTPBP10 / Fold change vs veh, GTPBP10 / RFU, CNEP1R1 / Fold change vs veh, CNEP1R1 / RFU, BIVM-ERCC5 /// ERCC5 / Fold change vs veh, BIVM-ERCC5 /// ERCC5 / RFU, ILF3 / Fold change vs veh, ILF3 / RFU 11762660_at / Fold change /veh 11762660_at / RFU VCAN (11757783_s_at) / Fold change /veh VCAN (11757783_s_at) / RFU DDX43 (11728927_at) / Fold change /veh DDX43 (11728927_at) / RFU KRT8 (11758188_x_at) / Fold change /veh KRT8 (11758188_x_at) / RFU NKD1 (11759106_at) / Fold change /veh NKD1 (11759106_at) / RFU SRD5A1 (11742802_a_at) / Fold change /veh SRD5A1 (11742802_a_at) / RFU TPSAB1 /// TPSB2 (11721975_s_at) / Fold change /veh TPSAB1 /// TPSB2 (11721975_s_at) / RFU GSTM3 (11746129_a_at) / Fold change /veh GSTM3 (11746129_a_at) / RFU IL23R (11737362_x_at) / Fold change /veh IL23R (11737362_x_at) / RFU TMEM51 (11727254_a_at) / Fold change /veh TMEM51 (11727254_a_at) / RFU PIWIL2 (11732686_x_at) / Fold change /veh PIWIL2 (11732686_x_at) / RFU ORM1 (11744905_x_at) / Fold change /veh ORM1 (11744905_x_at) / RFU CCDC152 (11743942_at) / Fold change /veh CCDC152 (11743942_at) / RFU ECM1 (11717891_a_at) / Fold change /veh ECM1 (11717891_a_at) / RFU IL23R (11748794_a_at) / Fold change /veh IL23R (11748794_a_at) / RFU TNFAIP8L3 (11732012_x_at) / Fold change /veh TNFAIP8L3 (11732012_x_at) / RFU MBOAT4 (11741988_at) / Fold change /veh MBOAT4 (11741988_at) / RFU 11764193_at / Fold change /veh 11764193_at / RFU TMEM53 (11763286_at) / Fold change /veh TMEM53 (11763286_at) / RFU MAGEB2 (11727129_at) / Fold change /veh MAGEB2 (11727129_at) / RFU TMEM200A (11744735_a_at) / Fold change /veh TMEM200A (11744735_a_at) / RFU CCDC152 (11751479_a_at) / Fold change /veh CCDC152 (11751479_a_at) / RFU FAM211A (11726209_a_at) / Fold change /veh FAM211A (11726209_a_at) / RFU RGS16 (11746705_a_at) / Fold change /veh RGS16 (11746705_a_at) / RFU VCAN (11755009_s_at) / Fold change /veh VCAN (11755009_s_at) / RFU RHOB (11743442_s_at) / Fold change /veh RHOB (11743442_s_at) / RFU RGS16 (11720943_a_at) / Fold change /veh RGS16 (11720943_a_at) / RFU RGS16 (11720944_at) / Fold change /veh RGS16 (11720944_at) / RFU, VPS4B / Fold change vs veh, VPS4B / RFU, CREB1 / Fold change vs veh, CREB1 / RFU, DNAJC13 / Fold change vs veh, DNAJC13 / RFU, GNAQ / Fold change vs veh, GNAQ / RFU, CDK5R1 / Fold change vs veh, CDK5R1 / RFU, ZRANB3 / Fold change vs veh, ZRANB3 / RFU, CUL4A / Fold change vs veh, CUL4A / RFU, CCNY / Fold change vs veh, CCNY / RFU, UFL1 / Fold change vs veh, UFL1 / RFU, COG3 / Fold change vs veh, COG3 / RFU, DIAPH2 / Fold change vs veh, DIAPH2 / RFU, SKA2 / Fold change vs veh, SKA2 / RFU, AFF3 / Fold change vs veh, AFF3 / RFU, LMF1 / Fold change vs veh, LMF1 / RFU, IPO11 / Fold change vs veh, IPO11 / RFU, DFFB / Fold change vs veh, DFFB / RFU, FOXP1 / Fold change vs veh, FOXP1 / RFU, CARD8 / Fold change vs veh, CARD8 / RFU, STRN3 / Fold change vs veh, STRN3 / RFU, ADK / Fold change vs veh, ADK / RFU, RASSF2 / Fold change vs veh, RASSF2 / RFU, WIPF1 / Fold change vs veh, WIPF1 / RFU, LARP1B / Fold change vs veh, LARP1B / RFU, RASA1 / Fold change vs veh, RASA1 / RFU, RB1 / Fold change vs veh, RB1 / RFU, PPFIA1 / Fold change vs veh, PPFIA1 / RFU, MAT2A / Fold change vs veh, MAT2A / RFU, CCT5 / Fold change vs veh, CCT5 / RFU, WDR92 / Fold change vs veh, WDR92 / RFU, CUX1 / Fold change vs veh, CUX1 / RFU, TTC7A / Fold change vs veh, TTC7A / RFU, TMEM135 / Fold change vs veh, TMEM135 / RFU, DEPTOR / Fold change vs veh, DEPTOR / RFU, CPM / Fold change vs veh, CPM / RFU, DNAJB6 / Fold change vs veh, DNAJB6 / RFU, CACNA2D3 / Fold change vs veh, CACNA2D3 / RFU, DTX4 / Fold change vs veh, DTX4 / RFU, TFCP2 / Fold change vs veh, TFCP2 / RFU, GMCL1 /// GMCL1P1 / Fold change vs veh, GMCL1 /// GMCL1P1 / RFU, AEBP2 / Fold change vs veh, AEBP2 / RFU, SNHG1 /// SNORD22 /// SNORD25 /// SNORD26 /// SNORD27 /// SNORD28 /// SNORD29 /// SNORD31 / Fold change vs veh, SNHG1 /// SNORD22 /// SNORD25 /// SNORD26 /// SNORD27 /// SNORD28 /// SNORD29 /// SNORD31 / Fold change (Aza/veh), C12orf56 (ProbeSet 11735607_a_at) / Fold change (ACY-1035/veh), C12orf56 (ProbeSet 11735607_a_at) / Fold change (Aza/veh), FGFR1OP (ProbeSet 11751329_s_at) / Fold change (ACY-1035/veh), FGFR1OP (ProbeSet 11751329_s_at) / Fold change (Aza/veh), VPS36 (ProbeSet 11739960_a_at) / Fold change (ACY-1035/veh), VPS36 (ProbeSet 11739960_a_at) / RFU SYPL1 (11715823_x_at) / Fold change /veh SYPL1 (11715823_x_at) / RFU IGFBP7 (11715501_s_at) / Fold change /veh IGFBP7 (11715501_s_at) / RFU REEP3 (11722064_at) / Fold change /veh REEP3 (11722064_at) / RFU IGLL1 (11728026_x_at) / Fold change /veh IGLL1 (11728026_x_at): dose or concentration left out as unconfirmed. The conditions noted are these: MV-4-11 cells, 48 hours.

In the case of `Nc1ccc(-c2cccs2)cc1NC(=O)c1ccc2c(c1)cc(C1CC1)n2CCN1CCOCC1` [ACY-1035], the “RFU HLA-DPB1 (11760878_x_at)” value turned out to be 21.61 RFU.
